Data on 15 compounds can be found in US12552775B2, “Compounds and uses thereof” (Foghorn Therapeutics Inc., priority 2020, dated 2026).

One experiment concerns the target T1, HiBit-BRM fusion protein (Homo sapiens, UniProt P51531).
T1 construct: expressed in transfected cells
Briefly: HiBiT-BRM cell-based degradation assay (Nano-Glo HiBiT Lytic Detection, 24 h). The note with it: stable HeLa cell line expressing HiBiT-BRM, top dose 30 μM. On the procedure:
(§1) Procedure: A stable HeLa cell line expressing HiBiT-BRM was generated. On day 0, 5000 cells were seeded in 40 μL of media into each well of 384-well cell culture plates. On day 1, cells were treated with 120 nL DMSO or 120 nL of 3-fold serially DMSO-diluted compounds (10 points in duplicate with 30 μM as final top dose). Subsequently plates were incubated for 24 h in a standard tissue culture incubator and equilibrated at room temperature for 15 minutes. Nano-Glo HiBiT Lytic Detection System (Promega N3050) reagent was freshly prepared and 20 ul was added to each well. Upon addition of this LgBit-containing reagent, the HiBiT and LgBiT proteins associate to form the luminescent NanoBiT luciferase. The plates were shaken for 10 minutes at room temperature and the bioluminescence read using an EnVision plate reader (PerkinElmer).
(§2) The degradation % was calculated using the following formula: % degradation=100%−100%×(Lumsample−LumLC)/(LumHC−LumLC). DMSO treated cells are employed as High Control (HC) and 2 μM of a known BRM/BRG1 degrader standard treated cells are employed as Low Control (LC).
(HiBiT is a short tag that completes a luciferase, so light tracks the accessible tagged protein.)

The target of experiment [1] is T2, HiBit-BRG1 fusion protein (Homo sapiens, UniProt P51532).
T2 construct: expressed in transfected cells
T2 sequence (P51532 whole entry, the tested form may be a part): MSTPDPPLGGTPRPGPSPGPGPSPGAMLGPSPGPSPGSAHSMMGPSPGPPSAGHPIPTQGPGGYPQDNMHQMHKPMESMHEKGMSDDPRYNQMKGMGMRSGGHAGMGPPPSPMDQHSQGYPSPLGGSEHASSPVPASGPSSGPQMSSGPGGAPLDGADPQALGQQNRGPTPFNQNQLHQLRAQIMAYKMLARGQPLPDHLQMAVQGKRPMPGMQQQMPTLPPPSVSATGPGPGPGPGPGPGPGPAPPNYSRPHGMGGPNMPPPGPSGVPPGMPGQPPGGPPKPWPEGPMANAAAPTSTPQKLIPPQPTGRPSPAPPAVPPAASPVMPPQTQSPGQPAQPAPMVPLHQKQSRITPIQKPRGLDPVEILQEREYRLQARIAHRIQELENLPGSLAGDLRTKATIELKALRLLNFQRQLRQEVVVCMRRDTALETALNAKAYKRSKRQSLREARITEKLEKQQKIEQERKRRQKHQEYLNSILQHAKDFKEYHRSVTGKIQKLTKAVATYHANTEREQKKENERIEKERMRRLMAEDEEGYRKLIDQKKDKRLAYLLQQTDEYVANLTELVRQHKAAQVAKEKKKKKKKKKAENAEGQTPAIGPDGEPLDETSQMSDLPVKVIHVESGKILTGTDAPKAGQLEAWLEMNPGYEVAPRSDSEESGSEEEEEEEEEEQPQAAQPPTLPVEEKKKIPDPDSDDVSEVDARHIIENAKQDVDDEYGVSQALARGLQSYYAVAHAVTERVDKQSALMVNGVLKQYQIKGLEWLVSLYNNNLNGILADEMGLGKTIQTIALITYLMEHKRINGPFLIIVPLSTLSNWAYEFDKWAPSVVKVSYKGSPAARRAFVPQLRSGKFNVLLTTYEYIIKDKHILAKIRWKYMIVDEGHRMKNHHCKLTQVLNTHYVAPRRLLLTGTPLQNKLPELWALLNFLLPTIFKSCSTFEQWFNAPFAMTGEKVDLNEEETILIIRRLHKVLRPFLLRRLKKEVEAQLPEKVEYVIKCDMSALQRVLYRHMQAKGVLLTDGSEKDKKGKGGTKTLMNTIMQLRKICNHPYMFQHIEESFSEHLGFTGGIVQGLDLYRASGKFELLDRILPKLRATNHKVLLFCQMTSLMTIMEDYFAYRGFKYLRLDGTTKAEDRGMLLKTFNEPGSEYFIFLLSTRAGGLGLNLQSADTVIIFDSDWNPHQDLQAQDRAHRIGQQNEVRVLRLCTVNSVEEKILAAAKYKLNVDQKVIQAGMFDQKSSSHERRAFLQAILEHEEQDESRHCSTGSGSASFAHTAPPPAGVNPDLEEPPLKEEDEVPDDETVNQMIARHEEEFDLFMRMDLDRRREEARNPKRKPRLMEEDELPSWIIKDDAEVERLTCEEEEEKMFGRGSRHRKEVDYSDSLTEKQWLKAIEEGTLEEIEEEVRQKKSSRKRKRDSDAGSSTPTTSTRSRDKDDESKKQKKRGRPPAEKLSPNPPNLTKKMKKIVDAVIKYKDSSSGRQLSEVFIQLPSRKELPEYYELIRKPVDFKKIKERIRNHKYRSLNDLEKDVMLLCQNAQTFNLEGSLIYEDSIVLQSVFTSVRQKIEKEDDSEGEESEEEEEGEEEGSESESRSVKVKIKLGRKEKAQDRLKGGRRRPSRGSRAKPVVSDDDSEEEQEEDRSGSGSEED
Nature of the experiment: HiBiT-BRG1 cell-based degradation assay (Nano-Glo HiBiT Lytic Detection, 24 h). The conditions noted are these: stable HeLa cell line expressing HiBit-BRG1 and LgBit, top dose 30 μM, read-out: BRG1 HiBit Degradation Maximum (%). The method, then:
as §1
For measurement of BRG1 degradation, a stable HeLa cell line expressing HiBit-BRG1 and LgBit was generated. The same protocol as above was then followed.
as §2

Some results are limits rather than exact numbers.

T1 sequence (P51531 whole entry, the tested form may be a part): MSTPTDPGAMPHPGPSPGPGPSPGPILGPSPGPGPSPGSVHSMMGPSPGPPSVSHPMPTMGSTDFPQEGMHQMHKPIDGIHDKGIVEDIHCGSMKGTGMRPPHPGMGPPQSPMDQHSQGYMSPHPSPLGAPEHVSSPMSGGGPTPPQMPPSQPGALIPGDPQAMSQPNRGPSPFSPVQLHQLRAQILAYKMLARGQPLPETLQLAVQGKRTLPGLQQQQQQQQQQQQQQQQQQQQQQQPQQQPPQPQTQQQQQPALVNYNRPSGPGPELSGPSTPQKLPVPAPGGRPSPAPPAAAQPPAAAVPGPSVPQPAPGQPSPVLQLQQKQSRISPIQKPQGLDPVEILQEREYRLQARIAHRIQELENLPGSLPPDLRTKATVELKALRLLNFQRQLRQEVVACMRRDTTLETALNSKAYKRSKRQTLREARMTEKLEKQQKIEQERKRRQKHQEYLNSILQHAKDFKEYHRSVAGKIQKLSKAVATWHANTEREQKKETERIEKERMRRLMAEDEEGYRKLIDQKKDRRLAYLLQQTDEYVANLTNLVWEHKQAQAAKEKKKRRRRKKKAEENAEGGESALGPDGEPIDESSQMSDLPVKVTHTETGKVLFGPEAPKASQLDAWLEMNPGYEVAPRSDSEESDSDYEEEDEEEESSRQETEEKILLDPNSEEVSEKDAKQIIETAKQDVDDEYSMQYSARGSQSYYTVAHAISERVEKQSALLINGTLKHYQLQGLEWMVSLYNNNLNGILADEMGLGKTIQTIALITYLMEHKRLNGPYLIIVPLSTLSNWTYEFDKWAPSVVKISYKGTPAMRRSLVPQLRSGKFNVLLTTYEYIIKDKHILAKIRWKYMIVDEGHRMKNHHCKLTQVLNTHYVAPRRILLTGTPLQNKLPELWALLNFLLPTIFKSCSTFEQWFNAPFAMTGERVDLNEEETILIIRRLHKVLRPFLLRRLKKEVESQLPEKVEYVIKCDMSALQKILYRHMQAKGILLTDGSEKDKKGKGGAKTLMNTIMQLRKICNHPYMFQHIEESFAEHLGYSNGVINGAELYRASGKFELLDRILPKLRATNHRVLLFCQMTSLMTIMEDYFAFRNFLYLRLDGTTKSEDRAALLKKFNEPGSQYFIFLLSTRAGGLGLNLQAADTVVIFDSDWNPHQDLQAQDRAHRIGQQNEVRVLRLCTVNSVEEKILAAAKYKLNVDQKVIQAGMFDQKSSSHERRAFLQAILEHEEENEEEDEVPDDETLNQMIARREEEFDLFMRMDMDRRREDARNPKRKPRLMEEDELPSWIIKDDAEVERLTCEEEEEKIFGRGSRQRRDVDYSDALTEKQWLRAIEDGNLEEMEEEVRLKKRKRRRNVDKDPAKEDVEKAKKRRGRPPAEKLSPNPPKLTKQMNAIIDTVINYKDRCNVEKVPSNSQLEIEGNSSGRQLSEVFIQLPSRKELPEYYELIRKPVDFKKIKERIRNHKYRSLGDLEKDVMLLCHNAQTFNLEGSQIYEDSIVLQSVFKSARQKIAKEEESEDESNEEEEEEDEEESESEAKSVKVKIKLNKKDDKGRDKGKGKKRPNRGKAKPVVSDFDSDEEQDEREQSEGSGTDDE

On to `Nc1nnc(-c2ccccc2O)cc1OCC12CC(C(=O)N3CC(CCOc4cccc5c4C(=O)N(C4CCC(=O)NC4=O)C5=O)C3)(C1)C2` (stereo not drawn) [Compound 78, 4-(2-(1-(3-(((3-amino-6-(2-hydroxyphenyl)pyridazin-4-yl)oxy)methyl)bicyclo[1.1.1]pentane-1-carbonyl)azetidin-3-yl)ethoxy)-2-(2,6-dioxopiperidin-3-yl)isoindoline-1,3-dione], for which the “BRM HiBit Degradation Maximum (%)” value at HiBit-BRM fusion protein is “C (“C” indicates maximum degradation < 50%)”. Also, the Dmax in experiment [1] was less than 50%.

For the compound `Cc1ncsc1-c1ccc(CNC(=O)[C@@H]2C[C@@H](O)CN2C(=O)[C@@H](NC(=O)CCCCCCCCCCC(=O)NCC23CC(COc4cc(-c5ccccc5O)nnc4N)(C2)C3)C(C)(C)C)cc1` [Compound 38, N1-((3-(((3-amino-6-(2-hydroxyphenyl)pyridazin-4-yl)oxy)methyl)bicyclo[1.1.1]pentan-1-yl)methyl)-N12-((S)-1-((2S,4R)-4-hydroxy-2-((4-(4-methylthiazol-5-yl)benzyl)carbamoyl)pyrrolidin-1-yl)-3,3-dimethyl-1-oxobutan-2-yl)dodecanediamide], at HiBit-BRM fusion protein, the “BRM HiBit Degradation Maximum (%)” value was “B (“B” indicates maximum degradation ≥ 50%)”. Also, the Dmax in experiment [1] was less than 50%.

As to `Nc1nnc(-c2ccccc2O)cc1OCC12CC(C(=O)N3CCN(CCCCCOc4ccc5c(c4)C(=O)N(C4CCC(=O)NC4=O)C5=O)CC3)(C1)C2` (stereo not drawn) [Compound 99, 5-((5-(4-(3-(((3-amino-6-(2-hydroxyphenyl)pyridazin-4-yl)oxy)methyl)bicyclo[1.1.1]pentane-1-carbonyl)piperazin-1-yl)pentyl)oxy)-2-(2,6-dioxopiperidin-3-yl)isoindoline-1,3-dione; formic acid], the “BRM HiBit Degradation Maximum (%)” value on HiBit-BRM fusion protein is on record as “C (“C” indicates maximum degradation < 50%)”. In experiment [1], the Dmax is less than 50%.

Turning to `Nc1nnc(-c2ccccc2O)cc1OCC12CC(C(=O)N3CCN(CCOc4ccc5c(c4)C(=O)N(C4CCC(=O)NC4=O)C5=O)CC3)(C1)C2` (stereo not drawn) [Compound 103, 5-(2-(4-(3-(((3-amino-6-(2-hydroxyphenyl)pyridazin-4-yl)oxy)methyl)bicyclo[1.1.1]pentane-1-carbonyl)piperazin-1-yl)ethoxy)-2-(2,6-dioxopiperidin-3-yl)isoindoline-1,3-dione; formic acid], on HiBit-BRM fusion protein, the “BRM HiBit Degradation Maximum (%)” value is recorded as “C (“C” indicates maximum degradation < 50%)”. Moreover, the Dmax in experiment [1] is less than 50%.

For the compound `Cc1nc2cccc(NCCCCCCNC(=O)C34CC(COc5cc(-c6ccccc6O)nnc5N)(C3)C4)c2c(=O)n1C1CCC(=O)NC1=O` (stereo not drawn) [Compound 67, 3-(((3-amino-6-(2-hydroxyphenyl)pyridazin-4-yl)oxy)methyl)-N-(6-((3-(2,6-dioxopiperidin-3-yl)-2-methyl-4-oxo-3,4-dihydroquinazolin-5-yl)amino)hexyl)bicyclo[1.1.1]pentane-1-carboxamide], on HiBit-BRM fusion protein, the “BRM HiBit Degradation Maximum (%)” value is “C (“C” indicates maximum degradation < 50%)”. Also, the Dmax in experiment [1] was less than 50%.

With `Nc1nnc(-c2ccccc2O)cc1OCCC12CC(NC(=O)CCOCCOCCOc3cccc4c3C(=O)N(C3CCC(=O)NC3=O)C4=O)(C1)C2` (stereo not drawn) [Compound 30, N-(3-(2-((3-amino-6-(2-hydroxyphenyl)pyridazin-4-yl)oxy)ethyl)bicyclo[1.1.1]pentan-1-yl)-3-(2-(2-((2-(2,6-dioxopiperidin-3-yl)-1,3-dioxoisoindolin-4-yl)oxy)ethoxy)ethoxy)propanamide], at HiBit-BRM fusion protein, the “BRM HiBit Degradation Maximum (%)” value is given as “C (“C” indicates maximum degradation < 50%)”. In addition, in experiment [1], the Dmax was less than 50%.

Consider `Nc1nnc(-c2ccccc2O)cc1OCCC12CC(NC(=O)C3CC3CNC(=O)COc3cccc4c3C(=O)N(C3CCC(=O)NC3=O)C4=O)(C1)C2` (stereo not drawn) [Compound 28, N-[3-(2-[[3-amino-6-(2-hydroxyphenyl)pyridazin-4-yl]oxy]ethyl)bicyclo[1.1.1]pentan-1-yl]-2-[(2-[[2-(2,6-dioxopiperidin-3-yl)-1,3-dioxoisoindol-4-yl]oxy]acetamido)methyl]cyclopropane-1-carboxamide], for which the “BRM HiBit Degradation Maximum (%)” value at HiBit-BRM fusion protein is “C (“C” indicates maximum degradation < 50%)”. In experiment [1], the Dmax was less than 50%.

Regarding `Cc1ncsc1-c1ccc(CNC(=O)[C@@H]2C[C@@H](O)CN2C(=O)[C@@H](NC(=O)CCCCCCCCCCCCC(=O)NC23CC(CCOc4cc(-c5ccccc5O)nnc4N)(C2)C3)C(C)(C)C)cc1` [Compound 49, N1-(3-(2-((3-amino-6-(2-hydroxyphenyl)pyridazin-4-yl)oxy)ethyl)bicyclo[1.1.1]pentan-1-yl)-N14-((S)-1-((2S,4R)-4-hydroxy-2-((4-(4-methylthiazol-5-yl)benzyl)carbamoyl)pyrrolidin-1-yl)-3,3-dimethyl-1-oxobutan-2-yl)tetradecanediamide], the “BRM HiBit Degradation Maximum (%)” value on HiBit-BRM fusion protein is listed as “C (“C” indicates maximum degradation < 50%)”. Further, the Dmax in experiment [1] was less than 50%.

As to `Nc1nnc(-c2ccccc2O)cc1OCC12CC(C(=O)NCCS(=O)(=O)CCNc3cccc4c3C(=O)N(C3CCC(=O)NC3=O)C4=O)(C1)C2` (stereo not drawn) [Compound 74, 3-(((3-amino-6-(2-hydroxyphenyl)pyridazin-4-yl)oxy)methyl)-N-(2-((2-((2-(2,6-dioxopiperidin-3-yl)-1,3-dioxoisoindolin-4-yl)amino)ethyl)sulfonyl)ethyl)bicyclo[1.1.1]pentane-1-carboxamide], the “BRM HiBit Degradation Maximum (%)” value on HiBit-BRM fusion protein is “C (“C” indicates maximum degradation < 50%)”. The Dmax in experiment [1] is less than 50%.

`Cc1ncsc1-c1ccc(CNC(=O)[C@@H]2C[C@@H](O)CN2C(=O)[C@@H](NC(=O)COCCOCCOCCNC(=O)C23CC(COc4cc(-c5ccccc5O)nnc4N)(C2)C3)C(C)(C)C)cc1` [Compound 69, (2S,4R)-1-((S)-1-(3-(((3-amino-6-(2-hydroxyphenyl)pyridazin-4-yl)oxy)methyl)bicyclo[1.1.1]pentan-1-yl)-15-(tert-butyl)-1,13-dioxo-5,8,11-trioxa-2,14-diazahexadecan-16-oyl)-4-hydroxy-N-(4-(4-methylthiazol-5-yl)benzyl)pyrrolidine-2-carboxamide]: the “BRM HiBit Degradation Maximum (%)” value on HiBit-BRM fusion protein is recorded as “C (“C” indicates maximum degradation < 50%)”. In addition, the Dmax in experiment [1] was less than 50%.

In the case of `Nc1nnc(-c2ccccc2O)cc1OCC12CC(C(=O)NCCOC3CN(c4ccc5c(c4)C(=O)N(C4CCC(=O)NC4=O)C5=O)C3)(C1)C2` (stereo not drawn) [Compound 81, 3-(((3-amino-6-(2-hydroxyphenyl)pyridazin-4-yl)oxy)methyl)-N-(2-((1-(2-(2,6-dioxopiperidin-3-yl)-1,3-dioxoisoindolin-5-yl)azetidin-3-yl)oxy)ethyl)bicyclo[1.1.1]pentane-1-carboxamide], the “BRM HiBit Degradation Maximum (%)” value on HiBit-BRM fusion protein is “B (“B” indicates maximum degradation ≥ 50%)”. Moreover, the Dmax in experiment [1] is more than 50%.

For the compound `Cc1ncsc1-c1ccc(CNC(=O)[C@@H]2C[C@@H](O)CN2C(=O)[C@@H](NC(=O)CCCCCCCCCC(=O)NC23CC(CCOc4cc(-c5ccccc5O)nnc4N)(C2)C3)C(C)(C)C)cc1` [Compound 48, N1-(3-(2-((3-amino-6-(2-hydroxyphenyl)pyridazin-4-yl)oxy)ethyl)bicyclo[1.1.1]pentan-1-yl)-N11-((S)-1-((2S,4R)-4-hydroxy-2-((4-(4-methylthiazol-5-yl)benzyl)carbamoyl)pyrrolidin-1-yl)-3,3-dimethyl-1-oxobutan-2-yl)undecanediamide; formic acid], the “BRM HiBit Degradation Maximum (%)” value on HiBit-BRM fusion protein is listed as “B (“B” indicates maximum degradation ≥ 50%)”. Besides, the Dmax in experiment [1] is more than 50%.

For the compound `Nc1nnc(-c2ccccc2O)cc1OCC12CC(C(=O)N3CCN(CCCC#Cc4ccc5c(c4)C(=O)N(C4CCC(=O)NC4=O)C5=O)CC3)(C1)C2` (stereo not drawn) [Compound 51, 5-(5-(4-(3-(((3-amino-6-(2-hydroxyphenyl)pyridazin-4-yl)oxy)methyl)bicyclo[1.1.1]pentane-1-carbonyl)piperazin-1-yl)pent-1-yn-1-yl)-2-(2,6-dioxopiperidin-3-yl)isoindoline-1,3-dione], the “BRM HiBit Degradation Maximum (%)” value on HiBit-BRM fusion protein is “C (“C” indicates maximum degradation < 50%)”. In addition, the Dmax in experiment [1] was less than 50%.

On to `Nc1nnc(-c2ccccc2O)cc1OCC12CC(C(=O)NCCOCc3cccc(COCCOc4ccc5c(c4)C(=O)N(C4CCC(=O)NC4=O)C5=O)c3)(C1)C2` (stereo not drawn) [Compound 84, 3-(((3-amino-6-(2-hydroxyphenyl)pyridazin-4-yl)oxy)methyl)-N-(2-((3-((2-((2-(2,6-dioxopiperidin-3-yl)-1,3-dioxoisoindolin-5-yl)oxy)ethoxy)methyl)benzyl)oxy)ethyl)bicyclo[1.1.1]pentane-1-carboxamide; formic acid], for which the “BRM HiBit Degradation Maximum (%)” value on HiBit-BRM fusion protein is reported as “C (“C” indicates maximum degradation < 50%)”. The Dmax in experiment [1] is less than 50%.

For the compound `Nc1nnc(-c2ccccc2O)cc1OCC12CC(CNC(=O)CCCCCCCCNc3ccc4c(c3)C(=O)N(C3CCC(=O)NC3=O)C4=O)(C1)C2` (stereo not drawn) [Compound 9, N-[[3-([[3-amino-6-(2-hydroxyphenyl)pyridazin-4-yl]oxy]methyl)bicyclo[1.1.1]pentan-1-yl]methyl]-9-[[2-(2,6-dioxopiperidin-3-yl)-1,3-dioxoisoindol-5-yl]amino]nonanamide], the “BRM HiBit Degradation Maximum (%)” value on HiBit-BRM fusion protein was “C (“C” indicates maximum degradation < 50%)”. The Dmax in experiment [1] is less than 50%.
